Literature values in patent publication US7439256B2, “(Arylamidoaryl) cyanoguanidine compounds” (priority 2004, dated 2008).
Structures can show the parent of a compound that is named as a salt.

Tested on: MO7e human leukemia cells

Cc1ccc(NC(=O)c2ccc(CN3CCN(C)CC3)cc2)cc1Nc1nccc(-c2cccnc2)n1 [Gleevec, imatinib mesylate]
GM-CSF stimulated growth of MO7e human leukemia cells (GM-CSF stimulated): not affected | Kit ligand-stimulated growth of MO7e human leukemia cells (Kit ligand-stimulated): inhibited | apoptosis in MO7e human leukemia cells (Kit ligand-stimulated conditions): induces apoptosis
